“And” between values parts separate entries of the source, which are not always exact repeats. Identical values can stand only once.
How the values were obtained:
Type in all cases: in vivo, human
[1] = system: cold; experiment: Analysis of cold cases, composition of Example 8 vs vitamin C and placebo (Experimental Example 3)
From the text: The present experiment example analyzed cold cases in the experiment group who took the composition of Example 8, and the control groups I and II who took vitamin C and placebo (wheat flour) respectively, throughout 40 months from 1999 to 2003. The intake is the same as 1 g after meal. Here, ‘cold’ is defined to show high fever or slight fever, sore throat, dry cough, headache, myalgia, and chill.
As a result of the above experiment, the average of cold case a year per person in the experiment group who took the present composition, the control group I who took vitamin C, and the control group II who took placebo was 0, 1.5, and 5.6, respectively, all of which are statistically significant difference under 0.05% of significance probability. In sum, the composition of the present invention accomplished 100% of cold prevention effect.

[2] = system: INF-γ; experiment: Cytokine in serum by ELISA (Experimental Example 4); settings: samples from persons after 40 months of intake; 10 samples
Procedure: (§1) After such cultivating, the plates were washed, biotynilated secondary antibody was filled in each plate by […], and streptavidin ALP was added thereto, which was cultivated at 37° C. for 30 minutes. After washing the plates again, alkaline phosphatase PNPP was added thereto, and the plates were cultivated for 30 minutes and measured with ELISA reader at 405 nm.

[3] = system: IL-4; experiment: as above; settings: samples from persons after 40 months of intake; 10 samples
Procedure: as §1

[4] = system: IL-12; experiment: as above; settings: samples from persons after 40 months of intake; 10 samples
Procedure: as §1

[5] = system: IL-10; experiment: as above; settings: samples from persons after 40 months of intake
Procedure: as §1

[6] = system: IL-2; experiment: as above; settings: samples from persons after 40 months of intake; 10 samples
Procedure: as §1

Q: For `O=C1O[C@H]([C@@H](O)CO)C(O)=C1O` [Vitamin C, ascorbic acid], which “average of cold case a year per person” value ([1]; 40 months, 1 g after meal) is on record?
A: 1.5

Q: What about the “cold prevention effect (in words)” value ([1]; group administrating vitamin C only) of the same compound?
A: some cold prevention effect

Q: What about the “Frequency of cold in the control group taking vitamin C” value ([1]; per person (one line per subject), 1 g after meal, 40 months 1999-2003) of the same compound?
A: 4 (7×) and 5 (5×) and 7 and 6 (2×)

Q: What about the “Cytokine in serum INF-γ” value [2] of the same compound?
A: 68 ± 12 pg/mL

Q: What about the “Cytokine in serum IL-4” value [3] of the same compound?
A: 0.14 ± 0.03 pg/mL

Q: And the “Cytokine in serum IL-12” value [4]?
A: 20 ± 7 pg/mL

Q: What about the “Cytokine in serum IL-10” value [5] of the same compound?
A: 10 ± 8 pg/mL

Q: And the “Cytokine in serum IL-2” value [6]?
A: 51 ± 19 pg/mL

Reference: patent publication US20070299040A1, “Composition for Preventing a Cold” (BIOTECH INSTITUTE FOR INTERNATIONAL INNOVATION, INC., priority 2004, published 2007)
